Legend:
NF-1+/+ SV40 MEFs = test: colchicine-induced death, cell viability by MTT assay; assay type: cell-based, mouse; settings: NF-1+/+ cells; 75 μM FTS or vehicle 24 h, then colchicine 4.5 h
Procedure: (§1) Human NF-1 ST88-14 MPNST, non-NF-1 STS26T MPNST, and the different primary and SV40-immortalized NF-1 genotypes (NF-1^−/−, NF-1^+/−, and NF-1^+/+) of mouse embryonic fibroblasts (MEFs) were grown in high-glucose Dulbecco's modified Eagle's medium (DMEM) supplemented with 10% heat-inactivated fetal calf serum (both from Biological Industries, Beit Ha Emek, Israel) with 0.0004% β-mercaptoethanol added to the MEF growth medium only.
(§2) The three primary NF-1 MEF genotypes were immortalized by transfection with SV40 whole genome DNA (a gift from Dr. Atan Gross, The Weizmann Institute of Science) using the lipofectamine transfection reagent (InvitroGen Life Technologies, Paisley, UK). One day before transfection, primary MEFs were seeded at a density of 2×10^5 cells per well in 6-well plates. To each dish we added 1 ml of DNA-lipofectamine mixture, 0.1 μg SV40 whole genome DNA, and 10 μg of lipofectamine in 1 ml of OptiMEM (InvitroGen), according to the manufacturer's instructions. The cells were split 24 h after transfection and seeded in 10-cm^2 dishes at a density of 1×10^3 to 1×10^4 cells per dish. Immortalized clones from each NF-1 genotype were collected 14 days after transfection.
(§3) Cell viability was determined by the MTT assay.

[1] = system: NF-1−/− and NF-1+/− SV40 MEFs; test: as above; assay type: cell-based, mouse; settings: NF-1−/− and NF-1+/− cells; 75 μM FTS or vehicle 24 h, then colchicine 4.5 h
Procedure: as §1, §2, §3

In the case of `COc1cc2c(c(OC)c1OC)-c1ccc(OC)c(=O)cc1[C@@H](NC(C)=O)CC2` [colchicine, Acetamide, N-((7S)-5,6,7,9-tetrahydro-1,2,3,10-tetramethoxy-9-oxobenzo(a)heptalen-7-yl)-], the “cell survival / colchicine-induced cell death” value (NF-1+/+ SV40 MEFs) is reported as “induced death” and the “cell survival / colchicine-induced cell death” value [1] is reported as “only a small effect on cell survival”.

From patent US20110046223A1, “TREATMENT OF NEUROFIBROMATOSIS” (RAMOT AT TEL-AVIV UNIVERSITY LTD., priority 2006, published 2011)
